Among the data in patent US10485795B2, “FXR (NR1H4) binding and activity modulating compounds” (Gilead Sciences, Inc., priority 2011, dated 2019) are EC50 values, retold here.

Experiment [1] concerns the target T1, human FXR alpha ligand binding domain (Homo sapiens, UniProt Q96RI1).
T1 construct: made in house; host or cells: E. coli BL21(DE3), vector pDEST15
T1 sequence (Q96RI1 187-472 isoform Q96RI1-2): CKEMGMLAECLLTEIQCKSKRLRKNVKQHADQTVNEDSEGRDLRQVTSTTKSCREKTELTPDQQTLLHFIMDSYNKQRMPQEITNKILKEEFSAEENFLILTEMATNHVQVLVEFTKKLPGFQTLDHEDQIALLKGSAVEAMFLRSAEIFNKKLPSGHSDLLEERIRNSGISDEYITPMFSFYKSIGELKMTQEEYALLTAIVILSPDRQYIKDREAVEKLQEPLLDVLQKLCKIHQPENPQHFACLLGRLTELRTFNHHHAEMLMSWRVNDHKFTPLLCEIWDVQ
Put plainly: FRET activity assay (ligand mediated cofactor peptide interaction). It counts as biochemical. On the procedure: Determination of a ligand mediated cofactor peptide interaction to quantify ligand binding to the nuclear receptor FXR was performed as follows: Preparation of human FXR alpha ligand binding domain: The human FXRalpha LBD was expressed in E. coli strain BL21(DE3) as an N-terminally GST tagged fusion protein. The DNA encoding the FXR ligand binding domain was cloned into vector pDEST15 (Invitrogen). Expression was under control of an IPTG inducible T7 promoter. The amino acid boundaries of the ligand binding domain were amino acids 187-472 of Database entry NM_005123 (RefSeq). Expression and purification of the FXR-LBD: An overnight preculture of a transformed E. coli strain was diluted 1:20 in LB-Ampicillin medium and grown at 30° C. to an optical density of OD600=0.4-0.6. Gene expression was then induced by addition of 0.5 mM IPTG. Cells were incubated an additional 6 h at 30° C., 180 rpm. Cells were collected by centrifugation (7000×g, 7 min, rt). Per liter of original cell culture, cells were resuspended in 10 mL lysis buffer (50 mM Glucose, 50 mM Tris pH 7.9, 1 mM EDTA and 4 mg/mL lysozyme) and left on ice for 30 min. Cells were then subjected to sonication and cell debris removed via centrifugation (22000×g, 30 min, 4° C.). Per 10 mL of supernatant 0.5 mL prewashed Glutathione 4B sepharose slurry (Qiagen) was added and the suspension kept slowly rotating for 1 h at 4° C. Glutathione 4B sepharose beads were pelleted by centrifugation (2000×g, 15 sec, 4° C.) and washed twice in wash buffer (25 mM Tris, 50 mM KCl, 4 mM MgCl2 and 1M NaCl). The pellet was resuspended in 3 mL elution buffer per liter of original culture (elution buffer: 20 mM Tris, 60 mM KCl, 5 mM MgCl2 and 80 mM glutathione added immediately prior to use as powder). The suspension was left rotating for 15 min at 4° C., the beads pelleted and eluted again with half the volume of elution buffer than the first time. The eluates were pooled and dialysed overnight in 20 mM Hepes buffer (pH 7.5) containing 60 mM KCl, 5 mM MgCl2 as well as 1 mM dithiothreitol and 10% (v/v) glycerol. The protein was analysed by SDS-Page.
The method measures the ability of putative ligands to modulate the interaction between the purified bacterial expressed FXR ligand binding domain (LBD) and a synthetic biotinylated peptide based on residues 676-700 of SRC-1 (LCD2, 676-700). The sequence of the peptide used was B-[…]-COOH where the N-terminus was biotinylated (B). The ligand binding domain (LBD) of FXR was expressed as fusion protein with GST in BL-21 cells using the vector pDEST15. Cells were lysed by sonication, and the fusion proteins purified over glutathione sepharose (Pharmacia) according to the manufacturers instructions. For screening of compounds for their influence on the FXR-peptide interaction, the Perkin Elmer LANCE technology was applied. This method relies on the binding dependent energy transfer from a donor to an acceptor fluorophor attached to the binding partner of interest. For ease of handling and reduction of background from compound fluorescence LANCE technology makes use of generic fluorophore labels and time resolved detection Assays were done in a final volume of 25 μL in a 384 well plate, in a Tris-based buffer (20 mM Tris-HCl pH 7.5; 60 mM KCl, 5 mM MgCl2; 35 ng/μL BSA), containing 20-60 ng/well recombinantly expressed FXR-LBD fused to GST, 200-600 nM N-terminally biotinylated peptide, representing SRC1 aminoacids 676-700, 200 ng/well Streptavidin-xIAPC conjugate (Prozyme) and 6-10 ng/well Eu W1024-antiGST (Perkin Elmer). DMSO content of the samples was kept at 1%. After generation of the assay mix and diluting the potentially FXR modulating ligands, the assay was equilibrated for 1 h in the dark at rt in FIA-plates black 384 well (Greiner). The LANCE signal was detected by a Perkin Elmer VICTOR2VTM Multilabel Counter. The results were visualized by plotting the ratio between the emitted light at 665 and 615 nm. […]

Experiment [2] has as its target T2, FXR ligand binding domain (Homo sapiens, UniProt Q96RI1).
T2 construct: expressed in transfected cells; host or cells: HEK293 (DSMZ), transient transfection with a pCMV-BD construct
T2 sequence (Q96RI1 187-472 isoform Q96RI1-2): T1 sequence (Q96RI1 187-472 isoform Q96RI1-2)
Put plainly: Mammalian One Hybrid (M1H) assay, Gal4 reporter in HEK293 cells. In kind it is cell-based. How it is done:
Determination of a ligand mediated Gal4 promoter driven transactivation to quantify ligand binding mediated activation of FXR was performed as follows: The cDNA part encoding the FXR ligand binding domain was cloned into vector pCMV-BD (Stratagene) as a fusion to the yeast GAL4 DNA binding domain under the control of the CMV promoter. […] The plasmid pFR-Luc (Stratagene) was used as the reporter plasmid, containing a synthetic promoter with five tandem repeats of the yeast GAL4 binding sites, driving the expression of the Photinus pyralis (American firefly) luciferase gene as the reporter gene. In order to improve experimental accuracy the plasmid pRL-CMV (Promega) was cotransfected. pRL-CMV contains the constitutive CMV promoter, controlling the expression of the Renilla reniformis luciferase. All Gal4 reporter gene assays were done in HEK293 cells (obtained from DSMZ, Braunschweig, Germany) grown in MEM with L-Glutamine and Earle's BSS supplemented with 10% fetal bovine serum, 0.1 mM nonessential amino acids, 1 mM sodium pyruvate, and 100 units Penicillin/[…] per mL at 37° C. in 5% CO2. Medium and supplements were obtained from Invitrogen. For the assay, […] were plated per well in 96 well plates in 100 μL per well MEM without Phenol Red and L-Glutamine and with Earle's BSS supplemented with 10% charcoal/dextran treated FBS (HyClone, South Logan, Utah), 0.1 mM nonessential amino acids, 2 mM glutamine, 1 mM sodium pyruvate, and 100 units Penicillin/[…] per mL, incubated at 37° C. in 5% CO2. The following day the cells were >90% confluence. […] MEM with the same composition as used for plating cells was added 2-4 h after addition of transfection mixture. Then compound stocks, prediluted in MEM were added (final vehicle concentration not exceeding 0.1%). […] All experiments were done in triplicates.

Setting [3] is: FXR-LBD/SRC-1 peptide interaction, LANCE, read-out: EC50 (Group), FRET activity assay.
Setting [4] is: Gal4-FXR LBD transactivation, HEK293 cells, read-out: EC50 potency range (Group), M1H assay.

Read-outs that look alike come from different tables or passages of the source.

As for `Cc1ccc(C(=O)O)cc1C1CC(O)(c2ccc(OCc3c(-c4c(Cl)cccc4Cl)noc3C3CC3)cc2Cl)C1` (single isomer, unassigned) [13/4], the EC50 is 25 to 100 nM in experiment [1] (setting [3]) and < 25 nM in experiment [2] (setting [4]). For `NS(=O)(=O)c1cccc(C2CC(O)(c3ccc(OCc4c(-c5c(Cl)cccc5Cl)noc4C4CC4)cc3Cl)C2)c1` (centres unmarked) [Example 5, 3-(3-(2-Chloro-4-((5-cyclopropyl-3-(2,6-dichlorophenyl)isoxazol-4-yl)methoxy)phenyl)-3-hydroxycyclobutyl)benzenesulfonamide], in that order: 25 to 100 nM and > 100 nM.

In the case of `O=C(O)c1cncc(N2CC(O)(c3ccc(OCc4c(-c5c(Cl)cccc5Cl)noc4C4CC4)cc3Cl)C2)c1` (single isomer, unassigned) [13/8], the figures for the EC50 in experiment [1] (setting [3]) and in experiment [2] (setting [4]) were < 25 nM and > 100 nM, respectively. As for `Cc1ccc(C2CC(O)(c3ccc(OCc4c(-c5c(Cl)cccc5Cl)noc4C4CC4)cc3Cl)C2)cc1C(=O)O` (single isomer, unassigned) [13/6], the values for the EC50 in experiment [1] (setting [3]) and in experiment [2] (setting [4]) were > 100 nM and < 25 nM, respectively.

With `O=C(O)c1ccc(C2CC(O)(c3ccc(OCc4c(-c5c(Cl)cccc5Cl)noc4C4CC4)cc3Cl)C2)cc1` (single isomer, unassigned) [Example 13/1], the half-maximal effective concentration (EC50) in experiment [1] (setting [3]) and in experiment [2] (setting [4]) was 25 to 100 nM in each case. With `Cc1cc(C2CC(O)(c3ccc(OCc4c(-c5c(Cl)cccc5Cl)noc4C4CC4)cc3Cl)C2)cc(C)c1C(=O)O` (single isomer, unassigned) [13/2], the EC50 in experiment [1] (setting [3]) and in experiment [2] (setting [4]) was > 100 nM throughout. On to `CC(C)n1nc(C(=O)O)cc1[C@H]1C[C@@](O)(c2ccc(OCc3c(-c4c(Cl)cccc4Cl)noc3C3CC3)cc2Cl)C1` [Example 8A, 5-((1r,3r)-3-(2-Chloro-4-((5-cyclopropyl-3-(2,6-dichlorophenyl)isoxazol-4-yl)methoxy)phenyl)-3-hydroxycyclobutyl)-1-isopropyl-1H-pyrazole-3-carboxylate], for which the EC50 in experiment [1] (setting [3]) and in experiment [2] (setting [4]) was 25 to 100 nM throughout. For `O=C(O)c1ccnc(N2CC(O)(c3ccc(OCc4c(-c5c(Cl)cccc5Cl)noc4C4CC4)cc3Cl)C2)c1` (single isomer, unassigned) [13/9], the concentration for a half-maximal effect (EC50) is < 25 nM in experiment [1] and > 100 nM in experiment [2].

Turning to `COc1ccc(C(=O)O)cc1C1CC(O)(c2ccc(OCc3c(-c4c(Cl)cccc4Cl)noc3C3CC3)cc2Cl)C1` (single isomer, unassigned) [13/3], the EC50 in experiment [1] (setting [3]) and in experiment [2] (setting [4]) was 25 to 100 nM each time.

Regarding `CS(=O)(=O)NC(=O)c1cccc([C@H]2C[C@](O)(c3ccc(OCc4c(-c5c(Cl)cccc5Cl)noc4C4CC4)cc3Cl)C2)c1` [Example 4, 3-((1s,3s)-3-(2-Chloro-4-((5-cyclopropyl-3-(2,6-dichlorophenyl)isoxazol-4-yl)methoxy)phenyl)-3-hydroxycyclobutyl)-N-(methylsulfonyl)benzamide], the figures for the EC50 in experiment [1] (setting [3]) and in experiment [2] (setting [4]) were < 25 nM and > 100 nM, respectively. On to `CC(C)n1nc(C(=O)NCCS(=O)(=O)O)cc1C1CC(O)(c2ccc(OCc3c(-c4c(Cl)cccc4Cl)noc3C3CC3)cc2Cl)C1` (centres unmarked) [14/2], for which the EC50 in experiment [1] (setting [3]) was < 25 nM. With `COC(=O)c1cccc([C@H]2C[C@](O)(c3ccc(OCc4c(-c5c(Cl)cccc5Cl)noc4C4CC4)cc3Cl)C2)c1` [Example 1, Methyl 3-((1s,3s)-3-(2-chloro-4-((5-cyclopropyl-3-(2,6-dichlorophenyl)isoxazol-4-yl)methoxy)phenyl)-3-hydroxycyclobutyl)benzoate], the EC50 in experiment [1] (setting [3]) was 25 to 100 nM; in experiment [2] (setting [4]), > 100 nM. In the case of `O=C(O)c1cccc([C@H]2C[C@](O)(c3ccc(OCc4c(-c5c(Cl)cccc5Cl)noc4C4CC4)cc3Cl)C2)c1` [Example 2, 3-((1s,3s)-3-(2-Chloro-4-((5-cyclopropyl-3-(2,6-dichlorophenyl)isoxazol-4-yl)methoxy)phenyl)-3-hydroxycyclobutyl)benzoic Acid], the EC50 in experiment [1] (setting [3]) and in experiment [2] (setting [4]) was 25 to 100 nM in each case.

Regarding `O=C(O)c1cccc(N2CC(O)(c3ccc(OCc4c(-c5c(Cl)cccc5Cl)noc4C4CC4)cc3Cl)C2)c1` (single isomer, unassigned) [13/7], the EC50 in experiment [1] (setting [3]) and in experiment [2] (setting [4]) was 25 to 100 nM throughout. As for `Cc1cc(C(=O)O)cc(C2CC(O)(c3ccc(OCc4c(-c5c(Cl)cccc5Cl)noc4C4CC4)cc3Cl)C2)c1` (single isomer, unassigned) [13/5], the values for the EC50 in experiment [1] (setting [3]) and in experiment [2] (setting [4]) were 25 to 100 nM and < 25 nM, respectively. For `CC(C)n1nc(C(=O)NCC(=O)O)cc1C1CC(O)(c2ccc(OCc3c(-c4c(Cl)cccc4Cl)noc3C3CC3)cc2Cl)C1` (centres unmarked) [Example 14/1], in that order: < 25 nM and > 100 nM. For `CC(C)n1nc(C(=O)O)cc1[C@H]1C[C@](O)(c2ccc(OCc3c(-c4c(Cl)cccc4Cl)noc3C3CC3)cc2Cl)C1` [Example 8, 5-((1s,3s)-3-(2-Chloro-4-((5-cyclopropyl-3-(2,6-dichlorophenyl)isoxazol-4-yl)methoxy)phenyl)-3-hydroxycyclobutyl)-1-isopropyl-1H-pyrazole-3-carboxylic Acid], in that order: < 25 nM and 25 to 100 nM. For `CS(=O)(=O)c1cccc(C2CC(O)(c3ccc(OCc4c(-c5c(Cl)cccc5Cl)noc4C4CC4)cc3Cl)C2)c1` (centres unmarked) [Example 6, 1-(2-Chloro-4-((5-cyclopropyl-3-(2,6-dichlorophenyl)isoxazol-4-yl)methoxy)phenyl)-3-(3-(methylsulfonyl)phenyl)cyclobutanol], the figures for the EC50 in experiment [1] (setting [3]) and in experiment [2] (setting [4]) were 25 to 100 nM and > 100 nM, respectively.
